US10759783B2, “Biaryl inhibitors of Bruton'S tyrosine kinase” (BIOGEN MA INC., priority 2013, dated 2020)

Key:
[1] = biological target: BTK (phospho-BTK) in human whole blood (Homo sapiens, UniProt Q06187); assay: In vitro PD assay in human whole blood (pBTK assay)
BTK enzyme = biological target: T1, BTK enzyme (Homo sapiens, UniProt Q06187); assay: In vitro BTK kinase assay: BTK-POLYGAT-LS assay; assay type: biochemical; conditions: ATP 10 μM, read-out: IC50 (10uMATP)
T1 construct: purchased Upstate 14-552
Summary of the method: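 Human BTK activity was measured with final 10 μM ATP and 100 nM polyGAT substrate in pH 7.5 Tris buffer with 10 mM MgCl2, DTT, Triton X-100 and casein.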

T1 sequence (Q06187 whole entry): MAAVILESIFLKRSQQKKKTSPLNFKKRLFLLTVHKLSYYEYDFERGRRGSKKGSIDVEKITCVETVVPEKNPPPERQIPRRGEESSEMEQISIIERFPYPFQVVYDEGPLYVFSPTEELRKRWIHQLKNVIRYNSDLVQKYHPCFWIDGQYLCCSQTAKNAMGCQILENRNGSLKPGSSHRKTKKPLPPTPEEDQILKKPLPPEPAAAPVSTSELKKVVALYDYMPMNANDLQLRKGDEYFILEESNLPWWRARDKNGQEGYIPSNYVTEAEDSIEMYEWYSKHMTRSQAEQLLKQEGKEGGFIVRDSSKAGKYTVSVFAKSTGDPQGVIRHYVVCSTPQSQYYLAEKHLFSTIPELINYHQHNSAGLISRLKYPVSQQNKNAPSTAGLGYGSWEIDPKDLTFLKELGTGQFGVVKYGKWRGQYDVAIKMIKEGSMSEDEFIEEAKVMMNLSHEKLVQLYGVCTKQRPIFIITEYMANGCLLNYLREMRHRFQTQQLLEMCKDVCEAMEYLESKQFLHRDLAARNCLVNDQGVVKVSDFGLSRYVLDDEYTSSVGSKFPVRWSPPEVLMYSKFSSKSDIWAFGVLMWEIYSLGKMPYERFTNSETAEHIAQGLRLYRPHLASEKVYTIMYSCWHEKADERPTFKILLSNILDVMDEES
Sequence of BTK (phospho-BTK) in human whole blood (Q06187 whole entry): as above

IC50 [1] [nM] | IC50 (BTK enzyme) [nM] | SMILES
500 to 1500 | < 10 | Cn1cc(Nc2nccc(-c3ccc(CNC(=O)c4cc5c(s4)CCOC5)c(C(F)(F)F)c3)n2)cn1 [Example I-115, N-(4-(2-((1-methyl-1H-pyrazol-4-yl)amino)pyrimidin-4-yl)-2-(trifluoromethyl)benzyl)-6,7-dihydro-4H-thieno[3,2-c]pyran-2-carboxamide]
500 to 1500 | < 10 | Cn1cc(Nc2nccc(-c3ccc(CNC(=O)c4cnc(C(C)(C)C)s4)c(C(F)(F)F)c3)n2)cn1 [Example I-116, 2-(tert-butyl)-N-(4-(2-((1-methyl-1H-pyrazol-4-yl)amino)pyrimidin-4-yl)-2-(trifluoromethyl)benzyl)thiazole-5-carboxamide]
< 500 | < 10 | Cn1cc(Nc2nccc(-c3cc(Cl)c(CNC(=O)c4cnc(C(C)(C)C)s4)cc3F)n2)cn1 [Example I-118, 2-(tert-butyl)-N-(2-chloro-5-fluoro-4-(2-((1-methyl-1H-pyrazol-4-yl)amino)pyrimidin-4-yl)benzyl)thiazole-5-carboxamide]
500 to 1500 | < 10 | Cc1cc(-c2ccnc(Nc3cnn(CCO)c3)n2)ccc1CNC(=O)c1cc2c(s1)CCOC2 [Example I-120, N-(4-(2-((1-(2-hydroxyethyl)-1H-pyrazol-4-yl)amino)pyrimidin-4-yl)-2-methylbenzyl)-6,7-dihydro-4H-thieno[3,2-c]pyran-2-carboxamide]
< 500 | < 10 | Cc1cc(-c2cc(Nc3cc4n(n3)CCN(C)C4)ncn2)ccc1CNC(=O)N1CC(OC(C)C)C1 [Example I-121, 3-isopropoxy-N-(2-methyl-4-(6-((5-methyl-4,5,6,7-tetrahydropyrazolo[1,5-a]pyrazin-2-yl)amino)pyrimidin-4-yl)benzyl)azetidine-1-carboxamide]
< 500 | < 10 | Cc1cc(-c2ccnc(Nc3cnn([C@@H]4CCNC4)c3)n2)ccc1CNC(=O)c1cnc(C(C)(C)C)s1 [Example I-122, (R)-2-(tert-butyl)-N-(2-methyl-4-(2-((1-(pyrrolidin-3-yl)-1H-pyrazol-4-yl)amino)pyrimidin-4-yl)benzyl)thiazole-5-carboxamide]
< 500 | < 10 | Cc1cc(-c2ccnc(Nc3cnn([C@@H]4CCN(C)C4)c3)n2)ccc1CNC(=O)c1cnc(C(C)(C)C)s1 [Example I-123, (R)-2-(tert-butyl)-N-(2-methyl-4-(2-((1-(1-methylpyrrolidin-3-yl)-1H-pyrazol-4-yl)amino)pyrimidin-4-yl)benzyl)thiazole-5-carboxamide]
< 500 | < 10 | Cc1cc(-c2ccnc(Nc3cnn([C@H]4CCNC4)c3)n2)ccc1CNC(=O)c1cnc(C(C)(C)C)s1 [Example I-124, (S)-2-(tert-butyl)-N-(2-methyl-4-(2-((1-(pyrrolidin-3-yl)-1H-pyrazol-4-yl)amino)pyrimidin-4-yl)benzyl)thiazole-5-carboxamide]
< 500 | < 10 | Cc1cc(-c2ccnc(Nc3cnn([C@H]4CCN(C)C4)c3)n2)ccc1CNC(=O)c1cnc(C(C)(C)C)s1 [Example I-125, (S)-2-(tert-butyl)-N-(2-methyl-4-(2-((1-(1-methylpyrrolidin-3-yl)-1H-pyrazol-4-yl)amino)pyrimidin-4-yl)benzyl)thiazole-5-carboxamide]
< 500 | < 10 | Cc1cc(-c2ccnc(Nc3cnn(C[C@@H]4CNCCO4)c3)n2)ccc1CNC(=O)c1cnc(C(C)(C)C)s1 [Example I-126, (S)-2-(tert-butyl)-N-(2-methyl-4-(2-((1-(morpholin-2-ylmethyl)-1H-pyrazol-4-yl)amino)pyrimidin-4-yl)benzyl)thiazole-5-carboxamide]
500 to 1500 | < 10 | Cc1cc(-c2ccnc(Nc3cnn(C[C@H](O)CN)c3)n2)ccc1CNC(=O)c1cnc(C(C)(C)C)s1 [Example I-127, (R)—N-(4-(2-((1-(3-amino-2-hydroxypropyl)-1H-pyrazol-4-yl)amino)pyrimidin-4-yl)-2-methylbenzyl)-2-(tert-butyl)thiazole-5-carboxamide]
< 500 | < 10 | Cc1cc(-c2ccnc(Nc3cnn(C[C@H]4CNCCO4)c3)n2)ccc1CNC(=O)c1cnc(C(C)(C)C)s1 [Example I-128, (R)-2-(tert-butyl)-N-(2-methyl-4-(2-((1-(morpholin-2-ylmethyl)-1H-pyrazol-4-yl)amino)pyrimidin-4-yl)benzyl)thiazole-5-carboxamide]
500 to 1500 | < 10 | Cc1cc(-c2ccnc(Nc3cnn(C[C@@H](O)CN)c3)n2)ccc1CNC(=O)c1cnc(C(C)(C)C)s1 [Example I-129, (S)—N-(4-(2-((1-(3-amino-2-hydroxypropyl)-1H-pyrazol-4-yl)amino)pyrimidin-4-yl)-2-methylbenzyl)-2-(tert-butyl)thiazole-5-carboxamide]
< 500 | < 10 | Cc1cc(-c2ccnc(Nc3cnn(C[C@H](N)C(=O)O)c3)n2)ccc1CNC(=O)c1cnc(C(C)(C)C)s1 [Example I-130, (S)-2-amino-3-(4-((4-(4-((2-(tert-butyl)thiazole-5-carboxamido)methyl)-3-methylphenyl)pyrimidin-2-yl)amino)-1H-pyrazol-1-yl)propanoic acid]

Further lines, the compound ahead of its results:

SMILES | IC50 [1] [nM] | IC50 (BTK enzyme) [nM]
Cc1cc(-c2ccnc(Nc3ccc(N4CCN(C)CC4)cn3)n2)ccc1CNC(=O)c1cnc(C(C)(C)C)s1 [Example I-62, 2-(tert-butyl)-N-(2-methyl-4-(2-((5-(4-methylpiperazin-1-yl)pyridin-2-yl)amino)pyrimidin-4-yl)benzyl)thiazole-5-carboxamide] | 1500 to 10000 | < 10
Cc1cc(-c2cc(Nc3cc4n(n3)CCN(C)C4)ncn2)ccc1CNC(=O)c1cnc(C(C)(C)C)s1 [Example I-63, 2-(tert-butyl)-N-(2-methyl-4-(6-((5-methyl-4,5,6,7-tetrahydropyrazolo[1,5-a]pyrazin-2-yl)amino)pyrimidin-4-yl)benzyl)thiazole-5-carboxamide] | < 500 | < 10
Cc1cc(-c2cc(Nc3cnn(C)c3)ncn2)ccc1CNC(=O)c1cnc(C(C)(C)C)s1 [Example I-64, 2-(tert-butyl)-N-(2-methyl-4-(6-((1-methyl-1H-pyrazol-4-yl)amino)pyrimidin-4-yl)benzyl)thiazole-5-carboxamide] | 1500 to 10000 | < 10
Cc1cc(-c2cc(Nc3cn(C)cn3)ncn2)ccc1CNC(=O)c1cnc(C(C)(C)C)s1 [Example I-65, 2-(tert-butyl)-N-(2-methyl-4-(6-((1-methyl-1H-imidazol-4-yl)amino)pyrimidin-4-yl)benzyl)thiazole-5-carboxamide] | 500 to 1500 | < 10
Cc1cc(-c2cc(Nc3ccn(C)n3)ncn2)ccc1CNC(=O)c1cnc(C(C)(C)C)s1 [Example I-66, 2-(tert-butyl)-N-(2-methyl-4-(6-((1-methyl-1H-pyrazol-3-yl)amino)pyrimidin-4-yl)benzyl)thiazole-5-carboxamide] | 500 to 1500 | < 10
Cc1cc(-c2cc(Nc3cnn(C)n3)ncn2)ccc1CNC(=O)c1cnc(C(C)(C)C)s1 [Example I-67, 2-(tert-butyl)-N-(2-methyl-4-(6-((2-methyl-2H-1,2,3-triazol-4-yl)amino)pyrimidin-4-yl)benzyl)thiazole-5-carboxamide] | 500 to 1500 | < 10
Cc1cc(-c2cc(Nc3ccc(N4CCN(C)CC4)cn3)ncn2)ccc1CNC(=O)c1cnc(C(C)(C)C)s1 [Example I-69, 2-(tert-butyl)-N-(2-methyl-4-(6-((5-(4-methylpiperazin-1-yl)pyridin-2-yl)amino)pyrimidin-4-yl)benzyl)thiazole-5-carboxamide] | < 500 | < 10
Cc1cc(-c2ccnc(Nc3ccc(N4CCN(C)CC4)cn3)c2)ccc1CNC(=O)c1cnc(C(C)(C)C)s1 [Example I-70, 2-(tert-butyl)-N-(2-methyl-4-(2-((5-(4-methylpiperazin-1-yl)pyridin-2-yl)amino)pyridin-4-yl)benzyl)thiazole-5-carboxamide] | < 500 | < 10
Cn1cc(Nc2nccc(-c3ccc4c(c3)CCCC4NC(=O)c3cnc(C(C)(C)C)s3)n2)cn1 (stereo not drawn) [Example I-91, 2-(tert-butyl)-N-(6-(2-((1-methyl-1H-pyrazol-4-yl)amino)pyrimidin-4-yl)-1,2,3,4-tetrahydronaphthalen-1-yl)thiazole-5-carboxamide] | 1500 to 10000 | < 10
Cn1cc(Nc2nccc(-c3ccc4c(c3)CCCC4NC(=O)c3cc4c(s3)CCOC4)n2)cn1 (stereo not drawn) [Example I-95, N-(6-(2-((1-methyl-1H-pyrazol-4-yl)amino)pyrimidin-4-yl)-1,2,3,4-tetrahydronaphthalen-1-yl)-6,7-dihydro-4H-thieno[3,2-c]pyran-2-carboxamide] | 500 to 1500 | < 10
Cn1cc(Nc2nccc(-c3ccc4c(c3)NCCC4NC(=O)c3cnc(C(C)(C)C)s3)n2)cn1 (stereo not drawn) [Example I-99, 2-(tert-butyl)-N-(7-(2-((1-methyl-1H-pyrazol-4-yl)amino)pyrimidin-4-yl)-1,2,3,4-tetrahydroquinolin-4-yl)thiazole-5-carboxamide] | 1500 to 10000 | < 10
Cc1cc(-c2ccnc(Nc3cnn(C)c3)n2)ccc1C(CO)NC(=O)c1cnc(C(C)(C)C)s1 (stereo not drawn) [Example I-108, 2-(tert-butyl)-N-(2-hydroxy-1-(2-methyl-4-(2-((1-methyl-1H-pyrazol-4-yl)amino)pyrimidin-4-yl)phenyl)ethyl)thiazole-5-carboxamide] | 1500 to 10000 | < 10
Cc1cc(-c2nc(Nc3cnn(C)c3)ncc2F)ccc1CNC(=O)c1cnc(C(C)(C)C)s1 [Example I-111, 2-(tert-butyl)-N-(4-(5-fluoro-2-((1-methyl-1H-pyrazol-4-yl)amino)pyrimidin-4-yl)-2-methylbenzyl)thiazole-5-carboxamide] | 1500 to 10000 | < 10
